The values that follow come from ChEMBL document CHEMBL3244391, “Antiviral activity of aliphatic nucleoside analogues: structure-function relationship” (1979).

This experiment relates to Vesicular stomatitis virus. The experiment is described as follows: Antiviral activity against Vesicular stomatitis virus infected in rabbit primary kidney cells assessed as inhibition of viral cytopathogenicity after 2 days. It is filed as functional.

For the molecule `Cc1cn(C[C@@H](O)CO)c(=O)[nH]c1=O`, the MID was greater than 400 µg/mL. As for `Nc1ncnc2c1nc(O)n2CC(O)CO` (racemic), the MID is greater than 400 µg/mL. As for `Nc1ncnc2c1ncn2[C@@H]1O[C@H](CO)[C@@H](O)[C@@H]1O` [VIDARABINE], the MID amounted to 20 µg/mL.

Take `O=c1ccn(C[C@H](O)CO)c(=O)[nH]1`: the MID was 400 µg/mL. On to `O=c1ccn(C[C@@H](O)[C@H](O)CO)c(=O)[nH]1`, for which the MID turned out to be 400 µg/mL. For `COCC(Cn1cnc2c(N)ncnc21)OC` (racemic), the MID is 300 µg/mL. Consider `CCC(=O)OCC(Cn1cnc2c(N)ncnc21)OC(=O)CC` (racemic), for which the MID turned out to be 300 µg/mL. `Nc1ncnc2c1ncn2CCCO`: the MID was found to be 200 µg/mL. For `[N-]=[N+]=NCC(O)Cn1cnc2c(N)ncnc21` (racemic) the value was 200 µg/mL; for `Nc1ncnc2c1ncn2CC(O)C(O)CO` (racemic), 200 µg/mL; for `Nc1ncnc2c1ncn2C[C@@H](O)[C@@H](O)CO`, 300 µg/mL. `NCCn1cnc2c(N)ncnc21`: the MID was greater than 400 µg/mL. Then `OCC(O)Cn1cnc2c(S)ncnc21` (racemic), with greater than 400 µg/mL; and `Nc1ncnc2c1ncn2CCO`, with greater than 400 µg/mL. For the molecule `Nc1ncnc2c1ncn2C[C@H](O)[C@H](O)CO`, the MID is 100 µg/mL. Then `O=c1ccn(CC[C@H](O)CO)c(=O)[nH]1`, with greater than 400 µg/mL; and `C[C@@H](O)[C@@H](O)Cn1cnc2c(N)ncnc21` (racemic), with 100 µg/mL. Then `Nc1ncnc2c1ncn2CCC(O)CO` (racemic), with 200 µg/mL; and `Nc1ncnc2c1ncn2C[C@@H](O)[C@H](O)CO`, with 300 µg/mL.

Regarding `NCC(N)Cn1cnc2c(N)ncnc21` (racemic), the MID was greater than 400 µg/mL. Then `O=c1ccn(CCC(O)CCO)c(=O)[nH]1` (racemic), with greater than 400 µg/mL; and `Nc1ncnc2c1ncn2C[C@H](O)CO` [(S)-DHPA], with 7 µg/mL.

For the molecule `Nc1nc(N)c2ncn(CC(O)CO)c2n1` (racemic), the MID is greater than 400 µg/mL. For `CC(C)(C)C(=O)OCC(Cn1cnc2c(N)ncnc21)OC(=O)C(C)(C)C` (racemic) the value was greater than 400 µg/mL; for `CCCCCCCCCCCCCCCC(=O)OCC(O)Cn1cnc2c(N)ncnc21` (racemic), greater than 400 µg/mL. Regarding `CSc1nc(N)c2ncn(CC(O)CO)c2n1` (racemic), the MID was greater than 400 µg/mL. `Nc1nc(O)c2c(ncn2CC(O)CO)n1` (racemic): the MID was greater than 400 µg/mL. Then `Nc1ncnc2c1ncn2C[C@H](O)[C@@H](O)CO`, with greater than 400 µg/mL. For `NCC(O)Cn1cnc2c(N)ncnc21` (racemic) the value was 200 µg/mL; for `CC(O)Cn1cnc2c(N)ncnc21` (racemic), greater than 400 µg/mL; for `CNc1ncnc2c1ncn2CC(O)CO` (racemic), greater than 400 µg/mL. Then `O=c1ccn(C[C@H](O)[C@H](O)CO)c(=O)[nH]1` (racemic), with greater than 400 µg/mL; and `CC(=O)OC[C@H](Cn1cnc2c(N)ncnc21)OC(C)=O`, with 300 µg/mL; and `Nc1ccn([C@@H]2O[C@H](CO)[C@@H](O)[C@@H]2O)c(=O)n1` [CYTARABINE], with 10 µg/mL. In the case of `Nc1ncnc2c1ncn2CC(O)CO` (racemic), the MID amounted to 20 µg/mL. For `Nc1ncnc2c1ncn2CCC(O)CCO` (racemic) the value was greater than 400 µg/mL; for `Nc1nc2c(ncn2CC(O)CO)c(=O)[nH]1` (racemic), greater than 400 µg/mL; for `Nc1ccn(CC(O)CO)c(=O)n1` (racemic), 400 µg/mL. In the case of `OC[C@@H](O)Cn1cnc2c(O)ncnc21`, the MID was greater than 400 µg/mL.

Consider `O=c1cnn(CC(O)CO)c(=O)[nH]1` (racemic), for which the MID is greater than 400 µg/mL. Consider `Cc1c[nH]c(=O)n(C[C@H](O)CO)c1=O`, for which the MID is greater than 400 µg/mL. On to `CN(C)c1ncnc2c1ncn2CC(O)CO` (racemic), for which the MID is greater than 400 µg/mL. Regarding `Nc1ncnc2c1ncn2CC[C@H](O)CO`, the MID was 100 µg/mL. Consider `COC(CO)Cn1cnc2c(N)ncnc21` (racemic), for which the MID came to 300 µg/mL. As for `Nc1ncnc2c1ncn2C[C@@H](O)CO`, the MID is 300 µg/mL. For `Nc1ncnc2c1nc(S)n2CC(O)CO` (racemic) the value was greater than 400 µg/mL; for `Nc1ncnc2c1nc(Br)n2CC(O)CO` (racemic), greater than 200 µg/mL.

Consider `Nc1ncnc2c1ncn2C(CO)CO`, for which the MID turned out to be 300 µg/mL.

As to `Cc1cn(C[C@H](O)CO)c(=O)[nH]c1=O`, the MID is greater than 400 µg/mL. As to `COCC(O)Cn1cnc2c(N)ncnc21` (racemic), the MID is greater than 400 µg/mL.

On to `O=c1[nH]c(=O)n([C@H]2C[C@H](O)[C@@H](CO)O2)cc1I` [IDOXURIDINE], for which the MID was greater than 400 µg/mL.

As for `Nc1c2ncn(CC(O)CO)c2nc[n+]1[O-]` (racemic), the MID was greater than 400 µg/mL. Consider `O=c1ccn(CC(O)C(O)CO)c(=O)[nH]1` (racemic), for which the MID is greater than 400 µg/mL. Then `[N-]=[N+]=NCC(Cn1cnc2c(N)ncnc21)N=[N+]=[N-]` (racemic), with 400 µg/mL; and `Nc1ncnc2c1ncn2CC(N)CO` (racemic), with 100 µg/mL; and `CC(C)(C)C(=O)OCC(O)Cn1cnc2c(N)ncnc21` (racemic), with greater than 400 µg/mL.
